Measurements taken from patent US7090790B2, “Chemiluminescent composition producing white light” (priority 2004, dated 2006).

Assays:
[1] = Solubility in chloroform at 20° C., Formula 2 vs Formula 3; format: physicochemical; conditions: in 100 mL of chloroform at 20° C.
[2] = Intensity of white light, Experimental Example 2 (−25° F.); conditions: low temperature
Experimental: The oxalate solutions and the activator solutions prepared in Examples 1 and 2, and Comparative Examples 1 and 2 were mixed in a volume ratio of 3:1 to chemiluminescent compositions, respectively.
The procedure was repeated in the same manner as in Experimental Example 1, except that the temperature of the thermostat was set to −25° F.

CCCCCCN1C(=O)c2cc(Cl)c3c4c(Cl)cc5c6c(cc(Cl)c(c7c(Cl)cc(c2c37)C1=O)c64)C(=O)N(CCCCCC)C5=O [Hexyl (Formula 3), N,N′-dihexyl-1,6,7,12-tetrachloroperylene-3,4,9,10-dicarboximide]
Solubility, 1,6,7,12-tetrahaloperylenedicarboximide of Formula 3 (X is Cl) [1]: 72 g

CCCCCCCCCCCCN1C(=O)c2cc(Cl)c3c4c(Cl)cc5c6c(cc(Cl)c(c7c(Cl)cc(c2c37)C1=O)c64)C(=O)N(CCCCCCCCCCCC)C5=O [Dodecyl (Formula 3), N,N′-didodecyl-1,6,7,12-tetrachloroperylene-3,4,9,10-dicarboximide]
Solubility, 1,6,7,12-tetrahaloperylenedicarboximide of Formula 3 (X is Cl) [1]: 65 g | precipitation of the dye in the chemiluminescent composition [2]: no precipitates were formed even at low temperature
